From patent US9133206B2, “Benzodiazepine and pyridodiazepine derivatives” (AbbVie Inc., priority 2010, dated 2015)

Tests used:
[1] = tested on: mouse model of multiple sclerosis; conditions: in vivo administration; cited from earlier work
[2] = tested on: SK-N-SH human neuroblastoma cells; assay: Serum Deprivation/JC-1 Mitochondrial Membrane Potential (MMP) Assay; type: cell-based; conditions: Homo sapiens, single dose 3 μM, JC-1 ratio normalized to peak value for 10 μM dimebolin (n=2-4), serum deprivation, read-out: JC-1 max % (@ 3 μM)
Outline: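 SK-N-SH cells serum-deprived ~18 h with compound, then stained with JC-1 for 40 min at 37 °C; red (560/595 nm) to green (485/535 nm) ratio reports membrane potential. Response normalized to peak from 10 μM dimebolin; EC50 from fit to mean of n=2–3, or single-dose 3 μM; DMSO ≤1%.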

[3] = tested on: patients with mild-to-moderate Alzheimer's disease; conditions: 20 mg three times a day (60 mg/day); cited from earlier work

| SMILES | activation at 3 µM [2] | other results |
| --- | --- | --- |
| O=C1C=C(c2ccccc2)C(=O)N1c1cccc(Cl)c1 [1-(3-chlorophenyl)-3-phenyl-pyrrole-2,5-dione] |  | development of the disease [1]: significantly prevented the development of the disease |
| CN1CCN2c3ccccc3CN(C(=O)c3cccc(Cl)c3)CC2C1 (stereo not shown) [Example 175, (3-chlorophenyl)(3-methyl-1,2,3,4,4a,5-hexahydropyrazino[1,2-a][1,4]benzodiazepin-6(7H)-yl)methanone] | 40% |  |
| CN1CCN2c3ccccc3CN(C(=O)c3ccc(Cl)cc3)CC2C1 (stereo not shown) [Example 176, (4-chlorophenyl)(3-methyl-1,2,3,4,4a,5-hexahydropyrazino[1,2-a][1,4]benzodiazepin-6(7H)-yl)methanone] | 40% |  |
| Cc1ccc2c(c1)c1c(n2CCc2ccc(C)nc2)CCN(C)C1 [dimebolin] |  | clinical course of disease (ADAS-Cog, improvement over baseline) [3]: significant improvement in the clinical course of disease |
